# Test results from ChEMBL document CHEMBL3132847, “Pseudopeptides with a centrally positioned alkene-based disulphide bridge mimetic stimulate kallikrein-related peptidase 3 activity” (Medchemcomm, 2013).
# Active and inactive are the calls of the source. The rule behind the calls is not given here. Bridge positions count the residues as written; N and C are the ends. Square brackets hold non-standard residues; d marks the D form. Peptide text beside a SMILES is read from it. AllylGly = C=CC[C@H](N)C(=O)O; Aoc = NCCCCCCCC(=O)O
# Columns and labels:
# [1] = biological target: T1, Prostate-specific antigen (Homo sapiens) (UniProt P07288); assay: Stimulation of KLK3 (unknown origin) proteolytic activity using chromogenic chymotrypsin MeO-Suc-Arg-Pro-Tyr-pNA substrate at 20 ug/ml pre-incubated for 30 mins before addition of substrate by […] relative to untreated control
# T1 sequence (whole entry): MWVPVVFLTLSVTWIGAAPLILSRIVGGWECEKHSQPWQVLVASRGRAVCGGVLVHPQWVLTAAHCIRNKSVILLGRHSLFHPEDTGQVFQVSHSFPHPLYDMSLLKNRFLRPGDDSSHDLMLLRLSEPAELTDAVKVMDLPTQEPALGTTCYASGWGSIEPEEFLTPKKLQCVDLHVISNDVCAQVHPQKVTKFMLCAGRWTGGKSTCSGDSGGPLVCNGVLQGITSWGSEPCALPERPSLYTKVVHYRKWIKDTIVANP
# [2] = biological target: T1, Prostate-specific antigen (Homo sapiens); assay: Stimulation of KLK3 (unknown origin) proteolytic activity using chromogenic chymotrypsin MeO-Suc-Arg-Pro-Tyr-pNA substrate at 200 ug/ml pre-incubated for 30 mins before addition of substrate by […] relative to untreated control
Activity [1],fold change (FC) [2],SMILES
127%,,"CC[C@H](C)[C@@H]1NC(=O)[C@@H]2CSSC[C@H](NC(=O)[C@H](Cc3cnc[nH]3)NC(=O)[C@H](Cc3cnc[nH]3)NC(=O)[C@H](CCC(=O)O)NC1=O)C(=O)N[C@@H](Cc1c[nH]c3ccccc13)C(=O)N[C@@H](C)C(=O)N[C@H](C(N)=O)CSSC[C@H](N)C(=O)N[C@@H](C)C(=O)N[C@@H](C)C(=O)N[C@@H](Cc1ccc(O)cc1)C(=O)N2 (H-CAAYCIEHHCWAC-NH2; disulfide 1-13, 5-10)"
84%,,"CC(C)[C@@H]1NC(=O)[C@@H](N)CSSC[C@@H](C(N)=O)NC(=O)[C@H]([C@@H](C)O)NC(=O)[C@H](Cc2c[nH]c3ccccc23)NC(=O)[C@H](C)NC(=O)[C@@H]2CSSC[C@H](NC(=O)[C@H](C)NC(=O)[C@H](Cc3ccc(O)cc3)NC(=O)[C@H](C)NC1=O)C(=O)N[C@@H](CCC(=O)O)C(=O)N[C@@H](Cc1cnc[nH]1)C(=O)N2 (H-CVAYACEHCAWTC-NH2; disulfide 1-13, 6-9)"
152%,,"CC(C)[C@@H]1NC(=O)[C@@H](N)CSSC[C@@H](C(N)=O)NC(=O)[C@H]([C@@H](C)O)NC(=O)[C@H](Cc2c[nH]c3ccccc23)NC(=O)[C@@H]2CSSC[C@H](NC(=O)[C@H](Cc3ccc(O)cc3)NC(=O)[C@H](C)NC1=O)C(=O)NCC(=O)N[C@@H](CCC(=O)O)C(=O)N[C@@H](Cc1cnc[nH]1)C(=O)N[C@@H](Cc1cnc[nH]1)C(=O)N2 (H-CVAYCGEHHCWTC-NH2; disulfide 1-13, 5-10)"
165%,,"CC[C@H](C)[C@@H]1NC(=O)[C@@H]2CSSC[C@H](NC(=O)[C@H](C)NC(=O)[C@H](C)NC(=O)[C@H](C)NC1=O)C(=O)N[C@@H](Cc1c[nH]c3ccccc13)C(=O)N[C@@H]([C@@H](C)O)C(=O)N[C@H](C(N)=O)CSSC[C@H](N)C(=O)N[C@@H](C(C)C)C(=O)N[C@@H](C)C(=O)N[C@@H](Cc1ccc(O)cc1)C(=O)N2 (H-CVAYCIAAACWTC-NH2; disulfide 1-13, 5-10)"
239%,,"CC[C@H](C)[C@@H]1NC(=O)[C@@H]2CSSC[C@H](NC(=O)[C@H](C)NC(=O)[C@H](Cc3cnc[nH]3)NC(=O)[C@H](C)NC1=O)C(=O)N[C@@H](Cc1c[nH]c3ccccc13)C(=O)N[C@@H]([C@@H](C)O)C(=O)N[C@H](C(N)=O)CSSC[C@H](N)C(=O)N[C@@H](C(C)C)C(=O)N[C@@H](C)C(=O)N[C@@H](Cc1ccc(O)cc1)C(=O)N2 (H-CVAYCIAHACWTC-NH2; disulfide 1-13, 5-10)"
625%,,"CC[C@H](C)[C@@H]1NC(=O)[C@@H]2CSSC[C@H](NC(=O)[C@H](Cc3cnc[nH]3)NC(=O)[C@H](Cc3cnc[nH]3)NC(=O)[C@H](CCC(=O)O)NC1=O)C(=O)N[C@@H](Cc1c[nH]c3ccccc13)C(=O)N[C@@H]([C@@H](C)O)C(=O)N[C@H](C(=O)O)CSSC[C@H](N)C(=O)N[C@@H](C(C)C)C(=O)N[C@@H](C)C(=O)N[C@@H](Cc1ccc(O)cc1)C(=O)N2 (H-CVAYCIEHHCWTC-OH; disulfide 1-13, 5-10)"
223%,4,CC(C)[C@@H]1NC(=O)[C@@H](N)CSSC[C@@H](C(=O)O)NC(=O)[C@H]([C@@H](C)O)NC(=O)[C@H](Cc2c[nH]c3ccccc23)NC(=O)[C@@H]2C/C=C/C[C@H](NC(=O)[C@H](Cc3ccc(O)cc3)NC(=O)[C@H](C)NC1=O)C(=O)N[C@@H](Cc1ccccc1)C(=O)N[C@@H](CCC(=O)O)C(=O)N[C@@H](Cc1cnc[nH]1)C(=O)N[C@@H](Cc1cnc[nH]1)C(=O)N2 (H-CVAY[AllylGly]FEHH[AllylGly]WTC-OH; disulfide 1-13; staple (E) 5-10)
225%,4,CC[C@H](C)[C@@H]1NC(=O)[C@@H]2C/C=C/C[C@H](NC(=O)[C@H](Cc3cnc[nH]3)NC(=O)[C@H](C)NC(=O)[C@H](C)NC1=O)C(=O)N[C@@H](Cc1c[nH]c3ccccc13)C(=O)N[C@@H]([C@@H](C)O)C(=O)N[C@H](C(=O)O)CSSC[C@H](N)C(=O)N[C@@H](C(C)C)C(=O)N[C@@H](C)C(=O)N[C@@H](Cc1ccc(O)cc1)C(=O)N2 (H-CVAY[AllylGly]IAAH[AllylGly]WTC-OH; disulfide 1-13; staple (E) 5-10)
189%,,CC[C@H](C)[C@@H]1NC(=O)[C@@H]2C/C=C/C[C@H](NC(=O)[C@H](Cc3cnc[nH]3)NC(=O)[C@H](Cc3cnc[nH]3)NC(=O)[C@H](CCC(=O)O)NC1=O)C(=O)N[C@@H](Cc1c[nH]c3ccccc13)C(=O)N[C@@H]([C@@H](C)O)C(=O)N[C@H](C(=O)O)CSSC[C@H](N)C(=O)N[C@@H](C(C)C)C(=O)N[C@@H](C)C(=O)N[C@@H](Cc1ccc(O)cc1)C(=O)N2 (H-CVAY[AllylGly]IEHH[AllylGly]WTC-OH; disulfide 1-13; staple (E) 5-10)

# The next lines start with the molecule.
SMILES,Activity [1],fold change (FC) [2]
CC[C@H](C)[C@@H]1NC(=O)[C@@H](NC(=O)[C@H](Cc2ccc(O)cc2)NC(C)=O)C/C=C/C[C@@H](C(=O)N[C@@H](Cc2c[nH]c3ccccc23)C(N)=O)NC(=O)[C@H](Cc2cnc[nH]2)NC(=O)[C@H](Cc2cnc[nH]2)NC(=O)[C@H](CCC(=O)O)NC1=O (Ac-Y[AllylGly]IEHH[AllylGly]W-NH2; staple (E) 2-7),inactive,
CC[C@H](C)[C@@H]1NC(=O)[C@@H](NC(=O)[C@H](Cc2ccc(O)cc2)NC(C)=O)C/C=C/C[C@@H](C(=O)N[C@@H](Cc2c[nH]c3ccccc23)C(=O)O)NC(=O)[C@H](Cc2cnc[nH]2)NC(=O)[C@H](Cc2cnc[nH]2)NC(=O)[C@H](CCC(=O)O)NC1=O (Ac-Y[AllylGly]IEHH[AllylGly]W-OH; staple (E) 2-7),inactive,
"CC(C)[C@@H]1NC(=O)[C@@H](N)CSSC[C@@H](C(N)=O)NC(=O)[C@H]([C@@H](C)O)NC(=O)[C@H](Cc2c[nH]c3ccccc23)NC(=O)[C@@H]2CSSC[C@H](NC(=O)[C@H](Cc3ccc(O)cc3)NC(=O)[C@H](C)NC1=O)C(=O)N[C@@H](C)C(=O)N[C@@H](CCC(=O)O)C(=O)N[C@@H](Cc1cnc[nH]1)C(=O)N[C@@H](Cc1cnc[nH]1)C(=O)N2 (H-CVAYCAEHHCWTC-NH2; disulfide 1-13, 5-10)",299%,
"CC(C)[C@@H]1NC(=O)[C@@H](N)CSSC[C@@H](C(N)=O)NC(=O)[C@H]([C@@H](C)O)NC(=O)[C@H](Cc2c[nH]c3ccccc23)NC(=O)[C@@H]2CSSC[C@H](NC(=O)[C@H](Cc3ccc(O)cc3)NC(=O)[C@H](C)NC1=O)C(=O)N[C@@H](Cc1ccccc1)C(=O)N[C@@H](CCC(=O)O)C(=O)N[C@@H](Cc1cnc[nH]1)C(=O)N[C@@H](Cc1cnc[nH]1)C(=O)N2 (H-CVAYCFEHHCWTC-NH2; disulfide 1-13, 5-10)",583%,
"CC[C@H](C)[C@@H]1NC(=O)[C@@H]2CSSC[C@H](NC(=O)[C@H](Cc3cnc[nH]3)NC(=O)[C@H](C)NC(=O)[C@H](C)NC1=O)C(=O)N[C@@H](Cc1c[nH]c3ccccc13)C(=O)N[C@@H]([C@@H](C)O)C(=O)N[C@H](C(N)=O)CSSC[C@H](N)C(=O)N[C@@H](C(C)C)C(=O)N[C@@H](C)C(=O)N[C@@H](Cc1ccc(O)cc1)C(=O)N2 (H-CVAYCIAAHCWTC-NH2; disulfide 1-13, 5-10)",476%,
"CC[C@H](C)[C@@H]1NC(=O)[C@@H]2CSSC[C@H](NC(=O)[C@H](C)NC(=O)[C@H](C)NC(=O)[C@H](CCC(=O)O)NC1=O)C(=O)N[C@@H](Cc1c[nH]c3ccccc13)C(=O)N[C@@H]([C@@H](C)O)C(=O)N[C@H](C(N)=O)CSSC[C@H](N)C(=O)N[C@@H](C(C)C)C(=O)N[C@@H](C)C(=O)N[C@@H](Cc1ccc(O)cc1)C(=O)N2 (H-CVAYCIEAACWTC-NH2; disulfide 1-13, 5-10)",226%,
"CC(C)C[C@@H]1NC(=O)[C@@H]2CSSC[C@H](NC(=O)[C@H](Cc3cnc[nH]3)NC(=O)[C@H](Cc3cnc[nH]3)NC(=O)[C@H](CCC(=O)O)NC1=O)C(=O)N[C@@H](Cc1c[nH]c3ccccc13)C(=O)N[C@@H]([C@@H](C)O)C(=O)N[C@H](C(N)=O)CSSC[C@H](N)C(=O)N[C@@H](C(C)C)C(=O)N[C@@H](C)C(=O)N[C@@H](Cc1ccc(O)cc1)C(=O)N2 (H-CVAYCLEHHCWTC-NH2; disulfide 1-13, 5-10)",436%,
CC(C)[C@@H]1NC(=O)[C@@H](N)CSSC[C@@H](C(=O)O)NC(=O)[C@H]([C@@H](C)O)NC(=O)[C@H](Cc2c[nH]c3ccccc23)NC(=O)CCCCCCCNC(=O)[C@H](Cc2ccc(O)cc2)NC(=O)[C@H](C)NC1=O (H-CVAY[Aoc]WTC-OH; disulfide 1-8),inactive,
